Source: US20240376097A1, “BCL-2 Inhibitor” (BeiGene Ltd., priority 2020, published 2024)
Like-named read-outs stand apart in the source and are kept apart here.

Tests used:
[1] = biological target: Recombinant human Bcl-2 protein (Homo sapiens (Human), UniProt P10415); assay: Bcl-2 TR-FRET Assay; assay type: binding
How it was run: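 0.05 nM Bcl-2 pre-incubated 0.5 h at room temperature with 10-point compound dilutions (top final 1, 0.1, 0.02 or 0.01 uM) in 20 mM potassium phosphate pH 7.5, 50 mM NaCl, 1 mM EDTA, 0.05% Tween-20, 0.01% BSA; FITC-Bak peptide (0.5 nM) and anti-6His Tb cryptate added, 1 h. IC50 from four-parameter logistic fit.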

[2] = tested on: RS4;11 (BCL-2 dependent acute lymphoblastic leukemia cell line); assay: RS4;11 Cell Proliferation Assay; assay type: cell-based; conditions: Homo sapiens, RS4;11 cells, read-out: Cellular proliferation assay (IC50, nM) RS4
How it was run: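 RS4;11 cells, 50,000 per well in RPMI-1640 with 10% FBS, treated 48 h at 37 °C with a 10-point dilution series topping at 1 μM. Viability read by CellTiter-Glo ATP luminescence; mean IC50 reported.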

[3] = biological target: recombinant human Bcl-2 D103Y protein (Homo sapiens (Human), UniProt P10415, D103Y); assay: Bcl-2-D103Y Biochemical Assay (TR-FRET); assay type: binding; conditions: for IC50: TR-FRET, FITC labeled Bak peptide; for Ratio of Bcl-2 D103Y/Bcl-2 WT: ratio of IC50; for ratio of Bcl-2 D103Y/Bcl-2 wt, compared with F91b in WO2019210828: comparison in words
recombinant human Bcl-2 D103Y protein, sequence (P10415 whole entry D103Y): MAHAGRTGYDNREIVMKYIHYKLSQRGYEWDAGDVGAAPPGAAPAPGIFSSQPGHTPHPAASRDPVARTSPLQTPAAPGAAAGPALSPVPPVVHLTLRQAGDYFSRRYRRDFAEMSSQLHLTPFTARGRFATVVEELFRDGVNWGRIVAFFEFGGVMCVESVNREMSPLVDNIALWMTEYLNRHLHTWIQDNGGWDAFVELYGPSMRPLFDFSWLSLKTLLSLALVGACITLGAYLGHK
How it was run: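 Recombinant human Bcl-2 D103Y binding to its ligand measured by TR-FRET (ex 337 nm, em 490/520 nm) with increasing compound concentrations. Percent inhibition from the 490/520 nm ratio; IC50 from four-parameter logistic fit.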

[4] = Bcl-2 wild type, TR-FRET, read-out: Biochemical assay (IC50, nM) Bcl-2 WT
[5] = wild type Bcl-2, unit inferred, read-out: Bcl-2 WT

Recombinant human Bcl-2 protein, sequence (P10415 whole entry): as the sequence (P10415 whole entry D103Y) above, with Y103D counted along it

Row | SMILES | IC50 [1, 4] | IC50 [1, 5] | IC50 [2] | IC50 [3] | Ratio of Bcl-2 D103Y/Bcl-2 WT [3] | ratio of Bcl-2 D103Y/Bcl-2 wt, compared with F91b in WO2019210828 [3]
1 | CC(C)c1ccccc1C1CN(Cc2ccc(F)c(F)c2)CCN1C1CC2(CCN(c3ccc(C(=O)NS(=O)(=O)c4ccc(NC[C@H]5CC[C@](C)(O)CC5)c([N+](=O)[O-])c4)c(Oc4cnc5[nH]ccc5c4)c3)CC2)C1 (some centres unmarked) [Example 52, 2-((1H-pyrrolo[2,3-b]pyridin-5-yl)oxy)-4-(2-(4-(3,4-difluorobenzyl)-2-(2-isopropylphenyl)piperazin-1-yl)-7-azaspiro[3.5]nonan-7-yl)-N-((4-((((1r,4r)-4-hydroxy-4-methylcyclohexyl)methyl)amino)-3-nitrophenyl)sulfonyl)benzamide] | 0.24 nM | 0.24 nM | 0.36 nM | 0.61 nM | 2.5 | –
2 | COc1ccc(CN2CCN(C3CC4(CCN(c5ccc(C(=O)NS(=O)(=O)c6ccc(NC[C@H]7CC[C@](C)(O)CC7)c([N+](=O)[O-])c6)c(Oc6cnc7[nH]ccc7c6)c5)CC4)C3)C(c3ccccc3C(C)C)C2)cn1 (some centres unmarked) [Example 72, 2-((1H-pyrrolo[2,3-b]pyridin-5-yl)oxy)-N-((4-((((1r,4r)-4-hydroxy-4-methylcyclohexyl)methyl)amino)-3-nitrophenyl)sulfonyl)-4-(2-(2-(2-isopropylphenyl)-4-((6-methoxypyridin-3-yl)methyl)piperazin-1-yl)-7-azaspiro[3.5]nonan-7-yl)benzamide] | 0.05 nM | 0.05 nM | 0.45 nM | 0.08 nM | 1.6 | significantly lower
3 | CC(C)c1ccccc1[C@@H]1CN(Cc2cccc3c2OCCO3)CCN1C1CC2(CCN(c3ccc(C(=O)NS(=O)(=O)c4ccc(NC[C@H]5CC[C@](C)(O)CC5)c([N+](=O)[O-])c4)c(Oc4cnc5[nH]ccc5c4)c3)CC2)C1 [Example 79a, 2-((1H-pyrrolo[2,3-b]pyridin-5-yl)oxy)-4-(2-(R-4-((2,3-dihydrobenzo [b][1,4]dioxin-5-yl)methyl)-2-(2-isopropylphenyl)piperazin-1-yl)-7-azaspiro[3.5]nonan-7-yl)-N-((4-((((1r,4r)-4-hydroxy-4-methylcyclohexyl)methyl)amino)-3-nitrophenyl)sulfonyl)benzamide] | 0.11 nM | 0.11 nM | 0.104 nM | 0.2 nM | 1.9 | –
4 | COc1ccc(CN2CCN(C3CC4(CCN(c5ccc(C(=O)NS(=O)(=O)c6ccc(NC[C@H]7CC[C@](C)(O)CC7)c([N+](=O)[O-])c6)c(Oc6cnc7[nH]cc(F)c7c6)c5)CC4)C3)[C@H](c3ccccc3C(C)C)C2)cc1OC [Example 127, 4-(2-((R)-4-(3,4-dimethoxybenzyl)-2-(2-isopropylphenyl)piperazin-1-yl)-7-azaspiro[3.5]nonan-7-yl)-2-((3-fluoro-1H-pyrrolo[2,3-b]pyridin-5-yl)oxy)-N-((4-((((1r,4r)-4-hydroxy-4-methylcyclohexyl)methyl)amino)-3-nitrophenyl)sulfonyl)benzamide] | 0.071 nM | 0.1 nM | 0.167 nM | 0.11 nM | 1 | significantly lower
5 | COc1ccc(CN2CCN(C3CC4(C3)CN(c3ccc(C(=O)NS(=O)(=O)c5ccc(NC[C@H]6CC[C@](C)(O)CC6)c([N+](=O)[O-])c5)c(Oc5cnc6[nH]cc(F)c6c5)c3)C4)[C@H](c3ccccc3C(C)C)C2)cc1OC [Example 141a, 4-(6-((R)-4-(3,4-dimethoxybenzyl)-2-(2-isopropylphenyl)piperazin-1-yl)-2-azaspiro[3.3]heptan-2-yl)-2-((3-fluoro-1H-pyrrolo[2,3-b]pyridin-5-yl)oxy)-N-((4-((((1r,4r)-4-hydroxy-4-methylcyclohexyl)methyl)amino)-3-nitrophenyl)sulfonyl)benzamide] | 0.054 nM | 0.054 nM | 0.166 nM | 0.072 nM | 1.3 | significantly lower
6 | COc1ccc(CN2CCN(C3CC4(C3)CN(c3ccc(C(=O)NS(=O)(=O)c5ccc(NC[C@H]6CC[C@](C)(O)CC6)c([N+](=O)[O-])c5)c(Oc5cnc6[nH]ccc6c5)c3)C4)[C@H](c3ccccc3C(C)C)C2)cc1OC [Example 145, 2-((1H-pyrrolo[2,3-b]pyridin-5-yl)oxy)-4-(6-((R)-4-(3,4-dimethoxybenzyl)-2-(2-isopropylphenyl)piperazin-1-yl)-2-azaspiro[3.3]heptan-2-yl)-N-((4-((((1r,4r)-4-hydroxy-4-methylcyclohexyl)methyl)amino)-3-nitrophenyl)sulfonyl)benzamide] | 0.028 nM | 0.028 nM | 0.104 nM | 0.045 nM | 1.6 | significantly lower
7 | COc1ccc(CN2CCN(C3CC4(C3)CN(c3ccc(C(=O)NS(=O)(=O)c5ccc(NC[C@H]6CC[C@](C)(O)CC6)c([N+](=O)[O-])c5)c(Oc5cnc6[nH]ccc6c5)c3)C4)[C@H](c3ccccc3C(C)C)C2)cc1 [Example 147, 2-((1H-pyrrolo[2,3-b]pyridin-5-yl)oxy)-N-((4-((((1r,4r)-4-hydroxy-4-methylcyclohexyl)methyl)amino)-3-nitrophenyl)sulfonyl)-4-(6-((R)-2-(2-isopropylphenyl)-4-(4-methoxybenzyl)piperazin-1-yl)-2-azaspiro[3.3]heptan-2-yl) benzamide] | 0.054 nM | 0.054 nM | 0.14 nM | 0.086 nM | 1.6 | –
8 | [2H]C([2H])([2H])Oc1ccc(CN2CCN(C3CC4(CCN(c5ccc(C(=O)NS(=O)(=O)c6ccc(NC[C@H]7CC[C@](C)(O)CC7)c([N+](=O)[O-])c6)c(Oc6cnc7[nH]cc(F)c7c6)c5)CC4)C3)[C@H](c3ccccc3C(C)C)C2)cc1OC([2H])([2H])[2H] [Example 198, 4-(2-((R)-4-(3,4-bis(methoxy-d3)benzyl)-2-(2-isopropylphenyl)piperazin-1-yl)-7-azaspiro[3.5]nonan-7-yl)-2-((3-fluoro-1H-pyrrolo[2,3-b]pyridin-5-yl)oxy)-N-((4-((((1r,4r)-4-hydroxy-4-methylcyclohexyl)methyl)amino)-3-nitrophenyl)sulfonyl)benzamide] | 0.072 nM | 0.072 nM | 0.12 nM | 0.08 nM | 1.1 | –
9 | COc1cc(CN2CCN(C3CC4(C3)CN(c3ccc(C(=O)NS(=O)(=O)c5ccc(NC[C@H]6CC[C@](C)(O)CC6)c([N+](=O)[O-])c5)c(Oc5cnc6[nH]cc(F)c6c5)c3)C4)[C@H](c3ccccc3C(C)C)C2)ccc1C1CC1 [Example 232, 4-(6-((R)-4-(4-cyclopropyl-3-methoxybenzyl)-2-(2-isopropylphenyl)piperazin-1-yl)-2-azaspiro[3.3]heptan-2-yl)-2-((3-fluoro-1H-pyrrolo[2,3-b]pyridin-5-yl)oxy)-N-((4-((((1r,4r)-4-hydroxy-4-methylcyclohexyl)methyl)amino)-3-nitrophenyl)sulfonyl)benzamide] | 0.7 nM | 0.59 nM | 0.13 nM | 0.95 nM | 1.6 | –
10 | COc1cc(CN2CCN(C3CC4(C3)CN(c3ccc(C(=O)NS(=O)(=O)c5ccc(NC[C@H]6CC[C@](C)(O)CC6)c([N+](=O)[O-])c5)c(Oc5cnc6[nH]ccc6c5)c3)C4)[C@H](c3ccccc3C(C)C)C2)ccc1C1CC1 [Example 233, 2-((1H-pyrrolo[2,3-b]pyridin-5-yl)oxy)-4-(6-((R)-4-(4-cyclopropyl-3-methoxybenzyl)-2-(2-isopropylphenyl)piperazin-1-yl)-2-azaspiro[3.3]heptan-2-yl)-N-((4-((((1r,4r)-4-hydroxy-4-methylcyclohexyl)methyl)amino)-3-nitrophenyl)sulfonyl)benzamide] | 0.43 nM | 0.43 nM | 0.13 nM | 0.83 nM | 1.9 | –
11 | COc1cc(CN2CCN(C3CC4(C3)CN(c3ccc(C(=O)NS(=O)(=O)c5ccc(NC[C@H]6CC[C@](C)(O)CC6)c([N+](=O)[O-])c5)c(Oc5cnc6[nH]cc(F)c6c5)c3)C4)[C@H](c3ccccc3C(C)C)C2)ccc1C [Example 274, 2-((3-fluoro-1H-pyrrolo[2,3-b]pyridin-5-yl)oxy)-N-((4-((((1r,4r)-4-hydroxy-4-methylcyclohexyl)methyl)amino)-3-nitrophenyl)sulfonyl)-4-(6-((R)-2-(2-isopropylphenyl)-4-(3-methoxy-4-methylbenzyl)piperazin-1-yl)-2-azaspiro[3.3]heptan-2-yl) benzamide] | 0.55 nM | 0.55 nM | 0.15 nM | 0.31 nM | 0.57 | –
